Data: article PMC12018053 (Biochemistry and Biophysics Reports, 2025)

What was measured:
Mu opioid (MOR) = Mu opioid (MOR) (Homo sapiens, UniProt P35372); experiment: NIMH PDSP primary binding screen, MOR; conditions: read-out: Inhibition (%) Mu opioid (MOR)
Mouse sEH = molecular target: T1, Mouse sEH (Mus musculus, UniProt P34914); experiment: sEH fluorescent-based inhibition assay; type: biochemical
T1 sequence (P34914 1-554): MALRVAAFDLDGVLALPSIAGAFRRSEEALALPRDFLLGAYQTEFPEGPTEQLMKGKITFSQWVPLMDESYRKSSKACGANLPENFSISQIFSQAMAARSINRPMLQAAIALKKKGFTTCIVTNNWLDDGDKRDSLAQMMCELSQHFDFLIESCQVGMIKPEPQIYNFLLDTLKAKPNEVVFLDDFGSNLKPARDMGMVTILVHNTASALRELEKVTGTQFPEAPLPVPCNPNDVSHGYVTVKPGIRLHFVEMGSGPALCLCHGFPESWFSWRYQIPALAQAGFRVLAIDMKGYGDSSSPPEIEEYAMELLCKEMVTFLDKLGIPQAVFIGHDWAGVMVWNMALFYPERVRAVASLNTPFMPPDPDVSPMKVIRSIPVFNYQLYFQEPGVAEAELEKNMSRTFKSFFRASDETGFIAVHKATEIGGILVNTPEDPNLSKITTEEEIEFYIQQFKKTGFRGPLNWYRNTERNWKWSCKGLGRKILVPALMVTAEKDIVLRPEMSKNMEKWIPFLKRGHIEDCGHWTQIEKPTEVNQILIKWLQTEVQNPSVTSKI

Rat sEH = molecular target: T2, Rat sEH (Rattus norvegicus, UniProt P80299); experiment: sEH fluorescent-based inhibition assay; type: biochemical
T2 sequence (P80299 1-554): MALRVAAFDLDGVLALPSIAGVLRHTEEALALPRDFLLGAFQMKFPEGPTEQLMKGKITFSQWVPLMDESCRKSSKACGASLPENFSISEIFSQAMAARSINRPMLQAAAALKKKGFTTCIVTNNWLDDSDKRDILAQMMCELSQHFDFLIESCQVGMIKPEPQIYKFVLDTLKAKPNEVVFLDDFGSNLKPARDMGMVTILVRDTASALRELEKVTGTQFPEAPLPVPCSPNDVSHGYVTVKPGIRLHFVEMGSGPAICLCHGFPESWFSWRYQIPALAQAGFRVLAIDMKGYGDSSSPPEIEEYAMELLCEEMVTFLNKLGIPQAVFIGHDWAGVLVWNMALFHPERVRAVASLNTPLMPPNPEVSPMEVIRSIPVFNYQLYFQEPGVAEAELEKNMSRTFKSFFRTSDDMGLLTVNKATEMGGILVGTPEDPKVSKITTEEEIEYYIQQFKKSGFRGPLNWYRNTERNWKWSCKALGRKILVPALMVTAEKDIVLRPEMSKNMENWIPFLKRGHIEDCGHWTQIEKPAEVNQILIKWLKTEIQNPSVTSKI

Sequence of Mu opioid (MOR) (P35372 whole entry): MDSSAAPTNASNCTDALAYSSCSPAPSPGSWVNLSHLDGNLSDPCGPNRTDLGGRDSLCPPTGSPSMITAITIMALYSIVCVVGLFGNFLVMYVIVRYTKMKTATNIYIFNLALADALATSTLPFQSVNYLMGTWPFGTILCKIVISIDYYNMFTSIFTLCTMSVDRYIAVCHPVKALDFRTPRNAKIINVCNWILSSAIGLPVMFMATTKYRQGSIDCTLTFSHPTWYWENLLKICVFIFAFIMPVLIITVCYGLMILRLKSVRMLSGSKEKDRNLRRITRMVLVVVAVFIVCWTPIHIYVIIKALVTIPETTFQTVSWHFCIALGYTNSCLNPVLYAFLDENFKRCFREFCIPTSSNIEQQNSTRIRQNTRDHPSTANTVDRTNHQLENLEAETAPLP

O=C(Nc1ccc(-c2ccc3ccncc3c2)cc1)C1CCN(S(=O)(=O)c2ccccc2Cl)CC1 [Compound 4f, 1-((2-chlorophenyl)sulfonyl)-N-(4-(isoquinolin-7-yl)phenyl)piperidine-4-carboxamide]
inhibition at 10 µM (Mu opioid (MOR)): 10.6 ± 4.75%
IC50 (Mouse sEH): 107 nM
IC50 (Rat sEH): 1 nM
